From patent publication US12122779B2, “Pyrrolo-pyridazine derivatives as muscarinic M1 receptor positive allosteric modulators” (SUVEN LIFE SCIENCES LIMITED, priority 2018, dated 2024)
Each block holds one molecule with its values, some of them ahead of it.

What was measured:
[1] = target: T1, recombinant human Muscarinic M1 receptor (Homo sapiens, UniProt P11229); assay: Allosteric potency EC50 for muscarinic M1 receptor, CHO pCRE-Luc reporter cell-based assay with EC20 of acetylcholine; settings: CHO cells, luciferase activity, in presence of EC20 of acetylcholine, 4 hours
T1 sequence (P11229 1-460): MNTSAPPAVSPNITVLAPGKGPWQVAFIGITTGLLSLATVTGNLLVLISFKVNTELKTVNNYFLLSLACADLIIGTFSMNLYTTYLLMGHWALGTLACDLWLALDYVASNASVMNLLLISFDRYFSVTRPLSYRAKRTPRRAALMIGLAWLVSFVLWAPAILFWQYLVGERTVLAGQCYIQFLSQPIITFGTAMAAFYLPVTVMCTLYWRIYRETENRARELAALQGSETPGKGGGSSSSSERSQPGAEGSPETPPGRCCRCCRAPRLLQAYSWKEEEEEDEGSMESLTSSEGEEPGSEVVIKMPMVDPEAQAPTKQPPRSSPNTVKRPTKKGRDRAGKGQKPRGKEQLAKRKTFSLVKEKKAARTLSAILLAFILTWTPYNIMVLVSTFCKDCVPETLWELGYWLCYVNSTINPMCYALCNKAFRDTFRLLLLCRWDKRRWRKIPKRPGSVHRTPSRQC
Protocol: Determination of Allosteric Potency EC50 Values for Muscarinic M1 Receptor
A stable CHO cell line expressing recombinant human Muscarinic M1 receptor and pCRE-Luc reporter system was used for cell-based assay. The assay offers a non-radioactive based approach to determine binding of a compound to GPCRs. In this specific assay, the level of intracellular cyclic AMP which is modulated by activation or inhibition of the receptor is measured. The recombinant cells harbor luciferase reporter gene under the control of cyclic AMP response element.
The above cells were grown in 96 well clear bottom white plates in Hams F12 medium containing 10% fetal bovine serum (FBS). Prior to the addition of compounds or standard agonist, cells were serum starved overnight. Increasing concentrations of test compounds were added along with EC20 of acetylcholine in OptiMEM medium to the cells. The incubation was continued at 37° C. in CO2 incubator for 4 hours. Medium was removed and cells were washed with phosphate buffered saline. The cells were lysed and luciferase activity was measured in a Luminometer. Luminescence units were plotted against the compound concentrations using Graphpad software.

[2] = Rodent pharmacokinetic study; type: in vivo, Male Wistar rats; settings: male, Wistar, plasma, rat; for bioavailability: oral 3 mg/kg vs intravenous 1 mg/kg, read-out: F (%) Bioavailability
Protocol: Rodent Pharmacokinetic Study
Male Wistar rats (260±50 grams) were used as experimental animals. Animals were housed individually in polypropylene cage. Two days prior to study, male Wistar rats were anesthetized with isoflurane for surgical placement of jugular vein catheter. Rats were randomly divided for oral (3 mg/kg) and intravenous (1 mg/kg) dosing (n=3/group) and fasted overnight before oral dosing (p.o.). However, rats allocated to intravenous dosing food and water was provided ad libitum.
At pre-determined point, blood was collected through jugular vein and replenished with an equivalent volume of normal saline. Collected blood was transferred into a labeled eppendorf tube containing 10 μL of heparin as an anticoagulant. Typically blood samples were collected at following time points: 0.08, 0.25, 0.5, 1, 2, 4, 6, 8, and 24 h post dose. Blood was centrifuged at 4000 rpm for 10 minutes. Plasma was separated and stored frozen at −80° C. until analysis. The concentrations of the test compounds were quantified in plasma by qualified LC-MS/MS method using suitable extraction technique. The test compounds were quantified in the calibration range around 1-1000 ng/mL in plasma. Study samples were analyzed using calibration samples in the batch and quality control samples spread across the batch.
Pharmacokinetic parameters Cmax, AUCt, T1/2, Clearance and Bioavailability (F) were calculated by non-compartmental model using standard non-compartmental model by using Phoenix WinNonlin 6.0.4 version Software package.

[3] = Rodent brain penetration study; type: in vivo, Male Wistar rats; settings: male, Wistar, brain and plasma, po; rat, 3 mg/kg p.o., brain-plasma ratio; read-out: Single dose Rat Brain Penetration (Cb/Cp) at 3 mg/kg, p.o.
Protocol: Rodent Brain Penetration Study
Male Wistar rats (260±40 grams) were used as experimental animals. Three animals were housed in each cage. Animals were given water and food ad libitum throughout the experiment and maintained on a 12 h light/dark cycle.
Brain penetration was determined in discrete manner in rats. One day prior to dosing day, male Wistar rats were acclimatized and randomly grouped according to their weight. At each time point (0.50, 1 and 2 h) n=3 animals were used.
The test compounds were suitably preformulated and administered orally at (free base equivalent) 3 mg/kg. Blood samples were removed via cardiac puncture by using isoflurane anesthesia. The animals were sacrificed to collect brain tissue. Plasma was separated and brain samples were homogenized and stored frozen at −20° C. until analysis. The concentrations of the test compounds in plasma and brain were determined using LC-MS/MS method.
The test compounds were quantified in plasma and brain homogenate by qualified LC-MS/MS method using suitable extraction technique. The test compounds were quantified in the calibration range of 1-500 ng/mL in plasma and brain homogenate. Study samples were analyzed using calibration samples in the batch and quality control samples spread across the batch. Extent of brain-plasma ratio (Cb/Cp) was calculated.

- EC50 [1]: 1.02 µM
Structure (SMILES): O=C(N[C@H]1CCCC[C@@H]1O)c1cc(Cc2ccc(-c3ccc(F)cc3)cc2)c2cccn2n1 (stereo in doubt) [Example 23, N-[(1S,2S)-2-Hydroxycyclohexyl] 4-[4-(4-fluorophenyl)-benzyl]-pyrrolo[1,2-b]pyridazine-2-carboxamide]

- AUC(0-t) ([2]; intravenous (bolus), 1 mg/kg): 1130 ± 61 ng·h/mL
- clearance ([2]; intravenous (bolus), 1 mg/kg): 14.4 ± 1 mL/min/kg
- half-life ([2]; intravenous (bolus), 1 mg/kg): 1.8 ± 0.2 h
- bioavailability [2]: 71 ± 4%
- AUC(0-t) ([2]; oral (gavage), 3 mg/kg): 2390 ± 129 ng·h/mL
- Cmax ([2]; oral (gavage), 3 mg/kg): 762 ± 80 ng/mL
- half-life ([2]; oral (gavage), 3 mg/kg): 1.77 ± 0.07 h
Structure (SMILES): O=C(N[C@H]1CCCC[C@@H]1O)c1cc(Cc2ccc(-c3cccnc3)cc2)c2cccn2n1 (stereo in doubt) [Example 26, N-[(1S,2S)-2-Hydroxycyclohexyl] 4-[4-(3-pyridyl)-benzyl]-pyrrolo[1,2-b]pyridazine-2-carboxamide]

- AUC(0-t) ([2]; intravenous (bolus), 1 mg/kg): 687 ± 50 ng·h/mL
- clearance ([2]; intravenous (bolus), 1 mg/kg): 24 ± 1.8 mL/min/kg
- half-life ([2]; intravenous (bolus), 1 mg/kg): 1.1 ± 0.3 h
- bioavailability [2]: 49 ± 16%
- AUC(0-t) ([2]; oral (gavage), 3 mg/kg): 1000 ± 320 ng·h/mL
- Cmax ([2]; oral (gavage), 3 mg/kg): 397 ± 162 ng/mL
- half-life ([2]; oral (gavage), 3 mg/kg): 1.06 ± 0.08 h
Structure (SMILES): O=C(N[C@H]1CCCC[C@@H]1O)c1cc(Cc2ccc(-c3ccncc3)cc2)c2cccn2n1 (stereo in doubt) [Example 27, N-[(1S,2S)-2-Hydroxycyclohexyl] 4-[4-(4-pyridyl)-benzyl]-pyrrolo[1,2-b]pyridazine-2-carboxamide]

- EC50 [1]: 0.096 µM
- AUC(0-t) ([2]; intravenous (bolus), 1 mg/kg): 2290 ± 121 ng·h/mL
- clearance ([2]; intravenous (bolus), 1 mg/kg): 7.1 ± 0.4 mL/min/kg
- half-life ([2]; intravenous (bolus), 1 mg/kg): 1.7 ± 0.1 h
- bioavailability [2]: 64 ± 9%
- AUC(0-t) ([2]; oral (gavage), 3 mg/kg): 4430 ± 618 ng·h/mL
- Cmax ([2]; oral (gavage), 3 mg/kg): 1440 ± 241 ng/mL
- half-life ([2]; oral (gavage), 3 mg/kg): 1.79 ± 0.37 h
- Kp [3]: 0.17 ± 0.01
Structure (SMILES): Cc1cncc(-c2ccc(Cc3cc(C(=O)N[C@H]4CCCC[C@@H]4O)nn4cccc34)cc2)c1 (stereo in doubt) [Example 44, N-[(1S,2S)-2-Hydroxycyclohexyl]-4-[4-(5-methylpyridin-3-yl)-benzyl]-pyrrolo[1,2-b]pyridazine-2-carboxamide]

- EC50 [1]: 0.555 µM
Structure (SMILES): O=C(N[C@H]1CCCC[C@@H]1O)c1cc(Cc2ccc(Cl)cc2)c2cccn2n1 [Example 2, N-[(1S,2S)-2-Hydroxycyclohexyl]-4-(4-chlorobenzyl)-pyrrolo[1,2-b]pyridazine-2-carboxamide]

- EC50 [1]: 0.941 µM
Structure (SMILES): CC(C)(O)CNC(=O)c1cc(Cc2ccc(Cl)cc2)c2cccn2n1 [Example 3, N-[2-Hydroxy-2-methyl-propyl]-4-(4-chlorobenzyl)-pyrrolo[1,2-b]pyridazine-2-carboxamide]

- EC50 [1]: 0.344 µM
Structure (SMILES): O=C(N[C@H]1CCCC[C@@H]1O)c1cc(Cc2ccc(Br)cc2)c2cccn2n1 [Example 5, N-[(1S,2S)-2-Hydroxycyclohexyl]-4-(4-bromobenzyl)-pyrrolo[1,2-b]pyridazine-2-carboxamide]

- EC50 [1]: 3.99 µM
Structure (SMILES): O=C(NCC1(O)CCOCC1)c1cc(Cc2ccc(Cl)cc2)c2cccn2n1 [Example 6, N-[(4-Hydroxy-tetrahydro-pyran-4-ylmethyl)]-4-(4-chlorobenzyl)-pyrrolo[1,2-b]pyridazine-2-carboxamide]

- EC50 [1]: 0.847 µM
Structure (SMILES): O=C(N[C@H]1CCCC[C@@H]1O)c1cc(Cc2cccc(F)c2)c2cccn2n1 [Example 7, N-[(1S,2S)-2-Hydroxycyclohexyl]-4-(3-fluorobenzyl)-pyrrolo[1,2-b]pyridazine-2-carboxamide]

- EC50 [1]: 1.55 µM
Structure (SMILES): O=C(NCCO)c1cc(Cc2ccc(Br)cc2)c2cccn2n1 [Example 12, N-[2-hydroxyethyl]-4-(4-bromobenzyl)-pyrrolo[1,2-b]pyridazine-2-carboxamide]

- EC50 [1]: 1 µM
Structure (SMILES): CCC(CO)NC(=O)c1cc(Cc2ccc(Br)cc2)c2cccn2n1 (stereo not drawn) [Example 16, N-[1-Hydroxymethyl-propyl]-4-(4-bromobenzyl)-pyrrolo[1,2-b]pyridazine-2-carboxamide]

- EC50 [1]: 1.9 µM
Structure (SMILES): CC(C)C(CO)NC(=O)c1cc(Cc2ccc(Br)cc2)c2cccn2n1 (stereo not drawn) [Example 17, N-[1-Hydroxymethyl-2-methylpropyl]-4-(4-bromobenzyl)-pyrrolo[1,2-b]pyridazine-2-carboxamide]

- AUC(0-t) ([2]; intravenous (bolus), 1 mg/kg): 8200 ± 1560 ng·h/mL
- clearance ([2]; intravenous (bolus), 1 mg/kg): 1.9 ± 0.5 mL/min/kg
- half-life ([2]; intravenous (bolus), 1 mg/kg): 8.1 ± 1.4 h
- bioavailability [2]: 58 ± 2%
- AUC(0-t) ([2]; oral (gavage), 3 mg/kg): 14200 ± 493 ng·h/mL
- Cmax ([2]; oral (gavage), 3 mg/kg): 1060 ± 257 ng/mL
- half-life ([2]; oral (gavage), 3 mg/kg): 8.7 ± 3 h
Structure (SMILES): Cn1cc(-c2ccc(Cc3cc(C(=O)NC4CCOCC4)nn4cccc34)cc2)cn1 [Example 21, N-[Tetrahydropyran-4-yl] 4-[4-(1-methyl-1H-pyrazol-4-yl)-benzyl]-pyrrolo[1,2-b]pyridazine-2-carboxamide]

- EC50 [1]: 1.66 µM
Structure (SMILES): Cn1cc(-c2ccc(Cc3cc(C(=O)NCC4(O)CCOCC4)nn4cccc34)cc2)cn1 [Example 22, N-[4-Hydroxy-tetrahydro-pyran-4-ylmethyl] 4-[4-(1-methyl-1H-pyrazol-4-yl)-benzyl]-pyrrolo[1,2-b]pyridazine-2-carboxamide]

- EC50 [1]: 0.586 µM
Structure (SMILES): O=C(NC1CCOCC1)c1cc(Cc2ccc(-c3cccnc3)cc2)c2cccn2n1 [Example 28, N-[Tetrahydropyran-4-yl] 4-[4-(3-pyridyl)-benzyl]-pyrrolo[1,2-b]pyridazine-2-carboxamide]

- EC50 [1]: 2.02 µM
Structure (SMILES): Cn1cc(-c2ccc(Cc3cc(C(=O)NC4CCOC4)nn4cccc34)cc2)cn1 (stereo not drawn) [Example 32, N-[Tetrahydrofuran-3-yl] 4-[4-(1-methyl-1H-pyrazol-4-yl)-benzyl]-pyrrolo[1,2-b]pyridazine-2-carboxamide]

- EC50 [1]: 2.11 µM
Structure (SMILES): O=C(NC1CCOC1)c1cc(Cc2ccc(-c3ccncc3)cc2)c2cccn2n1 (stereo not drawn) [Example 33, N-[Tetrahydrofuran-3-yl] 4-[4-(4-pyridyl)-benzyl]-pyrrolo[1,2-b]pyridazine-2-carboxamide]

- EC50 [1]: 2.85 µM
Structure (SMILES): O=C(NC1CCOC1)c1cc(Cc2ccc(-c3cccnc3)cc2)c2cccn2n1 (stereo not drawn) [Example 34, N-[Tetrahydrofuran-3-yl] 4-[4-(3-pyridyl)-benzyl]-pyrrolo[1,2-b]pyridazine-2-carboxamide]

- EC50 [1]: 0.343 µM
Structure (SMILES): Cn1cc(-c2ccc(Cc3cc(C(=O)NCC4CCOC4)nn4cccc34)cc2)cn1 (stereo not drawn) [Example 35, N-[Tetrahydrofuran-3-ylmethyl] 4-[4-(1-methyl-1H-pyrazol-4-yl)-benzyl]-pyrrolo[1,2-b]pyridazine-2-carboxamide]

- EC50 [1]: 1.15 µM
Structure (SMILES): CCC(CO)NC(=O)c1cc(Cc2ccc(-c3cnn(C)c3)cc2)c2cccn2n1 (stereo not drawn) [Example 36, N-[l-Hydroxymethyl-propyl] 4-[4-(1-methyl-1H-pyrazol-4-yl)-benzyl]-pyrrolo[1,2-b]pyridazine-2-carboxamide]

- EC50 [1]: 0.411 µM
Structure (SMILES): CC(C)C(CO)NC(=O)c1cc(Cc2ccc(-c3cnn(C)c3)cc2)c2cccn2n1 (stereo not drawn) [Example 37, N-[1-Hydroxymethyl-2-methylpropyl] 4-[4-(1-methyl-1H-pyrazol-4-yl)-benzyl]-pyrrolo[1,2-b]pyridazine-2-carboxamide]

- EC50 [1]: 0.518 µM
Structure (SMILES): O=C(N[C@H]1CCCC[C@@H]1O)c1cc(Cc2ccc(Cc3ccnc(F)c3)cc2)c2cccn2n1 [Example 50, N-[(1S,2S)-2-Hydroxycyclohexyl]-4-[4-(2-fluoropyridin-4-yl-methyl)-benzyl]-pyrrolo[1,2-b]pyridazine-2-carboxamide]
